Patent US20240002846A1, “COMPOSITIONS AND METHODS FOR THE DIAGNOSIS AND TREATMENT OF ITCH” (Duke University, priority 2020, published 2024)
Entries after “also recorded” stand apart in the source; their conditions may differ.

Key:
[1] = test system: rat TRPV4 mutations (R746C, R746G, R746D, K754G, R757G, R774G, and W776G); assay: Ca2+ imaging in HEK cells transfected with rat TRPV4 mutations; format: cell-based; details: except a reduction with mutation W776G
Experimental: (§1) Cell culture and transfection. HEK293 cells (ATCC® CRL-1573) were cultured on poly-D-lysine coated coverslips in 24-well plate containing DMEM media with high-Glucose (Gibco, Gaithersburg, MD) supplemented with 10% fetal bovine serum (FBS, HyClone Laboratories, Logan, UT) and 100 U/mL of penicillin/streptomycin (Gibco, Gaithersburg, MD). Cell cultures were maintained with 5% of CO2 in a humidified incubator at 37° C. HEK cells were transfected with rat or human wild type or mutant TRPV4 channels with EGFP or YFP coupled to their C-termini (1.5 μg of plasmid for excised patch clamp and Ca^2+ imaging and 200 ng for single-channel experiments). The jetPEI™ Polyplus transfection reagent (Polyplus Transfection, New York, NY) for electrophysiology or Lipofectamine™ 2000 Reagent (Invitrogen, Waltham, MA) for Ca^2+ imaging were used for transfections per manufacturer's instructions as previously described (Chen et al. Pain 2014, 155, 2662-2672; Morales-Lazaro et al. Nat. Commun. 2016, 7, 13092). To investigate whether miR-146a can directly activate TRPV1 channels or indirectly via TLRs, HEK293 cells were transfected with rTRPV1 or co-transfected rTRPV1 with rTLR7, rTLR2, or rTLR6 (Addgene, Watertown, MA) for Ca^2+ imaging assay. Control cells were transfected with GFP or YFP.
Site-directed mutagenesis of TRPV4 channels. TRPV4 sequences of multiple species were aligned using Clustal Omega program. Site-directed mutagenesis to generate point mutations in rat and human TRPV4 channels were carried out using Phusion DNA polymerase enzyme (Salazar et al. Nat. Struct. Mol. Biol. 2009, 16, 704-710; Rosenbaum et al. Neuron 2002, 33, 703-713; Hsieh et al. Methods Mol. Biol. 2013, 978, 173-186), with final sequencing to check for presence of the induced mutation. We introduced the following mutations into the rTRPV4 or hTRPV4 channel: R746C, R746G, R746D, K754G, R757G, R774G, and W776G.
(§2) In vitro and ex vivo Ca^2+ imaging. […] Ratios of emissions were acquired at 0.5 Hz. ΔR/R0 was determined as the fraction of the increase of a given ratio over baseline ratio divided by baseline ratio. […]

[2] = cited from earlier work
hTRPV4 = biological target: T1, hTRPV4 (Homo sapiens, UniProt Q9HBA0); assay: Single-channel recordings of hTRPV4 in HEK293 cells; format: biochemical; details: +60 mV; 100 nM GSK101 or 5 μM LPC 18:1
T1 construct: expressed in transfected cells; host or cells: HEK293 (ATCC CRL-1573)
T1 sequence (Q9HBA0 whole entry): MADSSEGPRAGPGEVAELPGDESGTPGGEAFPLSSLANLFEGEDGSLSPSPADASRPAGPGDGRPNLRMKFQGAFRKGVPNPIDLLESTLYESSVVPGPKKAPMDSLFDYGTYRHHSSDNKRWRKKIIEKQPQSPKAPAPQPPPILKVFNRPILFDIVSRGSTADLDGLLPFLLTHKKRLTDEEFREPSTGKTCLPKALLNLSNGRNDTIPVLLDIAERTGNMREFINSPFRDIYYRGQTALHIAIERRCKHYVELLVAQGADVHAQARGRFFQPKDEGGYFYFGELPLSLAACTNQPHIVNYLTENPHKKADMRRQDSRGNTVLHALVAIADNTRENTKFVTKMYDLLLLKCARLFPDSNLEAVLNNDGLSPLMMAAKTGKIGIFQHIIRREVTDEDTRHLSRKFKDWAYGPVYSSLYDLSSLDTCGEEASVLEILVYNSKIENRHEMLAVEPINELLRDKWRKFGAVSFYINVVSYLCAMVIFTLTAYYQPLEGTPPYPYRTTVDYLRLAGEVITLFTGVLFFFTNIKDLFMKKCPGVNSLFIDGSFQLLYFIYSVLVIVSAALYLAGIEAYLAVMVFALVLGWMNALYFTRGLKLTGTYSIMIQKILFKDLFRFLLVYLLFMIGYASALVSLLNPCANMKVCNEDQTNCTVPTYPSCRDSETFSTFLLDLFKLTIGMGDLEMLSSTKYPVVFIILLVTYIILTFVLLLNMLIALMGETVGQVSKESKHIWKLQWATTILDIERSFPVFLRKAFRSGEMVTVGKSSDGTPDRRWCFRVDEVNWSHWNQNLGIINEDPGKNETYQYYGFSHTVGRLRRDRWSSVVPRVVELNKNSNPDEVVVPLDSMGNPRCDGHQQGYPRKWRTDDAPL
Experimental: as §1
For single-channel recordings, Borosilicate glass […]) pipettes were used. Recordings were obtained at +60 mV by acquiring several traces of 1-3 s duration. The effect of GSK1016790A or LPC 18:1 on single TRPV4 channels was studied in inside-out. Currents were filtered at 2 kHz and sampled at 5 kHz. […] Single-channel openings and closures were identified with the half-threshold crossing technique (Morales-Lazaro et al. Nat. Commun. 2016, 7, 13092). The channel open probability was calculated as the sum of the total open time divided by the sweep duration. Dwell times and amplitude histograms in the closed or open states were collected in logarithmic time histograms according to the Sine-Sigworth transformation (Sigworth et al. Biophys. J. 1987, 52, 1047-1054). Sums of three or two exponential components were fitted to histograms using a least-squares algorithm.

[3] = test system: human TRPV4 mutations (R746C, R746G, R746D, K754G, R757G, R774G, and W776G); assay: Ca2+ imaging in HEK cells transfected with human TRPV4 mutations; format: cell-based; details: except a reduction with mutation W776G
Experimental: as §1, with “To investigate whether miR-146a can directly activate TRPV1 channels or indirectly via TLRs, HEK293 cells were transfected with rTRPV1 or co-transfected rTRPV1 with rTLR7, rTLR2, or rTLR6 (Addgene, Watertown, MA) for Ca^2+ imaging assay. Control cells were transfected with GFP or YFP.” left out
as §2

[4] = test system: TRPV1+ central nerve terminals; assay: Ablation of TRPV1+ central nerve terminals in spinal cord (TRPV1 immunolabeling); format: in vivo, mouse; details: i.t. 200 ng/5 μL
Experimental: To examine whether TRPV1-expressing sensory neurons contribute to LPC- or miR-146α-induced itch, we ablated the central terminals of TRPV1-expressing neurons by i.t. injection of 200 ng resiniferatoxin (RTX) into the L4/L5 subarachnoid space (Mishra et al. Mol. Cell. Neurosci. 2010, 43, 157-163). Lumbar puncture was made with a 30G-needle and drugs at 5 μL of volume were delivered. Scratching behavior assay was started approximately 2 weeks after resiniferatoxin treatment.
Immunohistochemistry and morphometry analysis. Routine procedures were followed (Chen et al. Pain 2014, 155, 2662-2672). Briefly, mice were perfused transcardially with 0.01 M PBS followed by ice-cold 4% paraformaldehyde (PFA, Sigma, St. Louis, MO). Cervical spinal cord, TGs and cervical DRGs, and dorsal neck skin were dissected and post-fixed in 4% PFA overnight, cryoprotected in 20% sucrose (48 h) and sectioned on a cryostat (30 μm for spinal cord, 12 μm for TG and DRG and neck skin). […] 4-6 sections were analyzed per mouse. […] The cutoff density threshold was determined by averaging the density of three neurons per section that were judged to be minimally positive, using ImageJ software. […] Positive cells were expressed as % of total counted TG neurons. The labeling density of TRPV1 in spinal cord was measured using the integrated density algorithm of Image J.

mice = assay: Effect of inhibitor pretreatment on LPA-, LPC- or miR-146a-induced scratching behavior; format: in vivo, mouse; details: i.t. 200 ng/5 μL, about 2 weeks before
Experimental: Behavioral assessment. Mice were shaved at the dorsal neck 1 d before experiments. […] After injections, mice were immediately placed back to the chamber, and the scratching behavior was recorded by a Panasonic video camera for 30 min. Hind limb scratching behavior directed toward the injected area at the nape of neck was observed. One scratch is defined as a lifting of the hind limb toward the injection site and then a replacing of the limb back to the floor, regardless of how many scratching strokes take place between those two movements. Behavioral analysis was conducted by observers blinded to genotype.
Control animals received the same volume of vehicles.
Lumbar puncture was made with a 30G-needle and drugs at 5 μL of volume were delivered. Scratching behavior assay was started approximately 2 weeks after resiniferatoxin treatment.

| Structure (SMILES) | 10 nM GSK101-induced Ca2+ signal in TRPV4 mutants vs rTRPV4 [1] | lethality in-vivo [2] | open level (single-channel) amplitude (hTRPV4) [pA] | open probability (Po) (hTRPV4) | single channel conductance (gi) (hTRPV4) [pS] | 10 nM GSK101-induced Ca2+ signal in TRPV4 mutants vs hTRPV4 [3] | TRPV1+ central nerve terminals in superficial layers of the spinal cord [4] | effect on LPC-induced itch after ablation of TRPV1-expressing terminals (mice) | effect on miR-146a-induced itch after ablation of TRPV1-expressing terminals (mice) |
| --- | --- | --- | --- | --- | --- | --- | --- | --- | --- |
| CC(C)C[C@H](NC(=O)c1cc2ccccc2s1)C(=O)N1CCN(C(=O)[C@H](CO)NS(=O)(=O)c2ccc(Cl)cc2Cl)CC1 [GSK101] | remained largely active; also recorded: not significantly disrupted | lethal | 6.45±0.55 | 0.85±0.08 | 107 | not significantly disrupted | – | – | – |
| C=C(C)[C@]12C[C@@H](C)[C@@]34O[C@](Cc5ccccc5)(O[C@@H]1[C@@H]3C=C(COC(=O)Cc1ccc(O)c(OC)c1)C[C@]1(O)C(=O)C(C)=C[C@@H]41)O2 [resiniferatoxin] | – | – | – | – | – | – | Selective ablation; also recorded: Elimination | significantly reduced | significant reduction; also recorded: significantly reduced |
